Reference: patent publication US20240174696A1, “2,8-DIAZASPIRO[4.5]DECANE COMPOUNDS” (Genentech, Inc., priority 2021, published 2024)

Tests used:
[1] = target: Human LATS2 catalytic domain (Homo sapiens (Human), UniProt Q9NRM7); test: LATS2 High ATP HTRF Assay; assay type: biochemical; conditions: no asterisk: LATS2 High ATP HTRF Assay, 5000 μM ATP, 0.05 nM LATS2
Method in brief: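 LATS2 catalytic domain (G553-V1088) co-purified with Mob1b, 0.05 nM, pre-incubated 10 min with compound, then 5000 μM ATP and 0.5 μM STK S1 peptide in HEPES pH7.2 for 2 h at room temperature. HTRF 665/620 nm read; IC50 by four-parameter fit, Ki via Cheng-Prusoff with ATP Km 105 μM.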

[2] = tested on: TAZ nuclear translocation in SW1990 cells; test: TAZ Nuclear Translocation Assay; assay type: cell-based; conditions: Homo sapiens, 4 hours
Experimental: The SW1990 cells (ATCC, CRL2172) were seeded at 5000 cells/well by adding 30 μL/well of cells in RPMI1640, 10% FBS, 2 mM glutamine culture media to a 384-well plate (Greiner 781091). The cells were incubated overnight at 37° C. Next day, test compounds were directly added to the cells using the Echo Liquid Handler (Labcyte), incubate at 37° C. for 4 hours. The cells were fixed with 4% paraformaldehyde and incubate for 20 minutes at room temperature. After washing three times with 100 μL PBS, 0.5% Triton X-100 was added to permeabilize the cells, incubate at room temperature for 5 minutes, following by washing the cells three times with PBS. 3% BSA was added to the cells, incubate for one hour at room temperature, following by washing three times with PBS. 50 μL of 1:750 diluted rabbit Anti-TAZ (Cell signaling D316D) in 3% BSA was added to the cells, incubate at 4° C. overnight. Next day, after washing the cells three times with PBS, 50 μL of 1:1250 diluted donkey anti-Rabbit, Alexa Fluor 488 (Invitrogen A21206) and 1:6250 diluted Hoechst 33342 (Molecular Probes H-21492) in 3% BSA was added to the cells, incubate at room temperature for one hour. The cells were washed three times with PBS, then image with the CellInsight CX7 High-Content Imager. The ratio of nuclear mean fluorescence intensity and cytoplasmic ring region mean fluorescence intensity was calculated. The % inhibition was normalized using DMSO as 0% inhibition and an inhibitor control as 100% inhibition. The EC50 values were calculated by fitting the % inhibition with a nonlinear four-parameter logistical equation.

Sequence of Human LATS2 catalytic domain (Q9NRM7 553-1088): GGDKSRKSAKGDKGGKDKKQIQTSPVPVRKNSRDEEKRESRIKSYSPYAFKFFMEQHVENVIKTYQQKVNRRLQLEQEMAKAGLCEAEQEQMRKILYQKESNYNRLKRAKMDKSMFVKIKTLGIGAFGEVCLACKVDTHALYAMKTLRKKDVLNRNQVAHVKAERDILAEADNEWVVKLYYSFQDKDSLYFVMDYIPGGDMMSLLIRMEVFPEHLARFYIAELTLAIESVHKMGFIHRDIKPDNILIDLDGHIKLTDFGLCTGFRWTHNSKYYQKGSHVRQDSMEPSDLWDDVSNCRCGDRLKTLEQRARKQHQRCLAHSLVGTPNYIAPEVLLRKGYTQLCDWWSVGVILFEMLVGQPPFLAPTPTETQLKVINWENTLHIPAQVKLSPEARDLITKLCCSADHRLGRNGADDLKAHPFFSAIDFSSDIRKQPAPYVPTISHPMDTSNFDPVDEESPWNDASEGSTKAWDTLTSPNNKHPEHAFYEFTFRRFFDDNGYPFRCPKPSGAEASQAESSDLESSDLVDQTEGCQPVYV
Sequence of Human LATS2 catalytic domain (Q7L9L4 whole entry partner, the tested form may be a part): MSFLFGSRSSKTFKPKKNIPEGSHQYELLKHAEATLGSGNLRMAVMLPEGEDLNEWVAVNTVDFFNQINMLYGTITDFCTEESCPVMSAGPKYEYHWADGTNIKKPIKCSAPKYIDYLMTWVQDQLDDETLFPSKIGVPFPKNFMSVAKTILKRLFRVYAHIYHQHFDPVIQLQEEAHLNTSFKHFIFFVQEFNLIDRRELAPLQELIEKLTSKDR

| SMILES | Ki [1] [nM] | EC50 [2] [nM] |
| --- | --- | --- |
| c1cc2c(N3CCC4(CCNC4)CC3)nc(-c3ccnc4[nH]ccc34)nc2cn1 [Compound 156, 2-(1H-pyrrolo[2,3-b]pyridin-4-yl)-4-(2,8-diazaspiro[4.5]decan-8-yl)pyrido[3,4-d]pyrimidine] | 0.7 | 4600 |
| Cc1cc2c(N3CCC4(CCNC4)CC3)nc(-c3c[nH]nc3C)nc2cn1 [Compound 160, 6-methyl-2-(3-methyl-1H-pyrazol-4-yl)-4-(2,8-diazaspiro[4.5]decan-8-yl)pyrido[3,4-d]pyrimidine] | 2.02 | > 10000 |
| Clc1cncc2nc(-c3ccncc3)nc(N3CCC4(CCNC4)CC3)c12 [Compound 161, 5-chloro-2-(pyridin-4-yl)-4-(2,8-diazaspiro[4.5]decan-8-yl)pyrido[3,4-d]pyrimidine] | 5.55 | 1900 |
| Cc1cncc2nc(-c3ccncc3)nc(N3CCC4(CCNC4)CC3)c12 [Compound 162, 5-methyl-2-(pyridin-4-yl)-4-(2,8-diazaspiro[4.5]decan-8-yl)pyrido[3,4-d]pyrimidine] | 1.54 | 4700 |
| Cc1n[nH]cc1-c1nc(N2CCC3(CCNC3)CC2)c2ccnc(C)c2n1 [Compound 163, 8-methyl-2-(3-methyl-1H-pyrazol-4-yl)-4-(2,8-diazaspiro[4.5]decan-8-yl)pyrido[3,4-d]pyrimidine] | 2.88 | > 10000 |
| CC1NCCC12CCN(c1nc(-c3ccncc3)nc3cnccc13)CC2 (stereo not shown) [Compound 166, 4-(1-methyl-2,8-diazaspiro[4.5]decan-8-yl)-2-(pyridin-4-yl)pyrido[3,4-d]pyrimidine] | 2.67 | 1800 |
| CC1CC2(CCN(c3nc(-c4ccncc4)nc4cnccc34)CC2)CN1C (stereo not shown) [Compound 168, 4-(2,3-dimethyl-2,8-diazaspiro[4.5]decan-8-yl)-2-(pyridin-4-yl)pyrido[3,4-d]pyrimidine] | 1.62 | 830 |
| COC(=O)C1CC2(CCN(c3nc(-c4ccncc4)nc4cnccc34)CC2)CN1 (stereo not shown) [Compound 171, methyl 8-(2-(pyridin-4-yl)pyrido[3,4-d]pyrimidin-4-yl)-2,8-diazaspiro[4.5]decane-3-carboxylate] | 1.95 | 8400 |
| CNC(=O)C1CC2(CCN(c3nc(-c4ccncc4)nc4cnccc34)CC2)CN1 (stereo not shown) [Compound 172, N-methyl-8-(2-(pyridin-4-yl)pyrido[3,4-d]pyrimidin-4-yl)-2,8-diazaspiro[4.5]decane-3-carboxamide] | 0.64 | 6500 |
| Fc1cnccc1-c1nc(N2CCC3(CCNC3)CC2)c2ccncc2n1 [Compound 182, 2-(3-fluoropyridin-4-yl)-4-(2,8-diazaspiro[4.5]decan-8-yl)pyrido[3,4-d]pyrimidine] | 2.26 | 2700 |
| Cc1[nH]ncc1-c1nc(N2CCC3(CCNC3)CC2)c2c(F)cncc2n1 [Compound 186, 5-fluoro-2-(5-methyl-1H-pyrazol-4-yl)-4-(2,8-diazaspiro[4.5]decan-8-yl)pyrido[3,4-d]pyrimidine] | 2.26 | > 10000 |
| OC1CNCC12CCN(c1nc(-c3ccncc3)nc3cnccc13)CC2 (stereo not shown) [Compound 187, 8-(2-(pyridin-4-yl)pyrido[3,4-d]pyrimidin-4-yl)-2,8-diazaspiro[4.5]decan-4-ol] | 1.44 | > 10000 |
| CN1CCC2(CCN(c3nc(-c4ccncc4)nc4cnc(Cn5cc(Cl)cn5)cc34)CC2)C1 [Compound 189, 6-((4-chloro-1H-pyrazol-1-yl)methyl)-4-(2-methyl-2,8-diazaspiro[4.5]decan-8-yl)-2-(pyridin-4-yl)pyrido[3,4-d]pyrimidine] | 0.76 | 540 |
| Cc1n[nH]cc1-c1nc(N2CCC3(CCN(C)C3)CC2)c2cc(Cn3cc(Cl)cn3)ncc2n1 [Compound 190, 6-((4-chloro-1H-pyrazol-1-yl)methyl)-2-(3-methyl-1H-pyrazol-4-yl)-4-(2-methyl-2,8-diazaspiro[4.5]decan-8-yl)pyrido[3,4-d]pyrimidine] | 0.026 | 110 |
